Measurements published in patent EP4745137A1 (Gluetacs Therapeutics (Shanghai) Co., Ltd., priority 2023, dated 2025).

Key:
WEE1 = target: T1, WEE1 (Homo sapiens, UniProt P30291+Q96SW2); assay: Western-blot assay of substrate protein degradation in hPBMCs, WEE1; type: cell-based; settings: 24 hours of compound treatment, 50 nM and 500 nM tested (concentration behind the class not stated)
T1 construct: endogenous in cells; host or cells: hPBMCs (Milecell Biotechnologies)

IKZF1 = target: T2, IKZF1 (Homo sapiens, UniProt Q13422+Q96SW2); assay: Western-blot assay of substrate protein degradation in hPBMCs, IKZF1; type: cell-based; settings: 24 hours of compound treatment, 50 nM and 500 nM tested (concentration behind the class not stated)
T2 construct: endogenous in cells; host or cells: hPBMCs (Milecell Biotechnologies)

IKZF2 = target: T3, IKZF2 (Homo sapiens, UniProt Q96SW2+Q9UKS7); assay: Western-blot assay of substrate protein degradation in hPBMCs, IKZF2; type: cell-based; settings: 24 hours of compound treatment, 50 nM and 500 nM tested (concentration behind the class not stated)
T3 construct: endogenous in cells; host or cells: hPBMCs (Milecell Biotechnologies)

IKZF3 = target: T4, IKZF3 (Homo sapiens, UniProt Q96SW2+Q9UKT9); assay: Western-blot assay of substrate protein degradation in hPBMCs, IKZF3; type: cell-based; settings: 24 hours of compound treatment, 50 nM and 500 nM tested (concentration behind the class not stated)
T4 construct: endogenous in cells; host or cells: hPBMCs (Milecell Biotechnologies)

CK1α = target: T5, CK1α (Homo sapiens, UniProt P48729+Q96SW2); assay: Western-blot assay of substrate protein degradation in hPBMCs, CK1α; type: cell-based; settings: 24 hours of compound treatment, 50 nM and 500 nM tested (concentration behind the class not stated)
T5 construct: endogenous in cells; host or cells: hPBMCs (Milecell Biotechnologies)

GSPT1 = target: T6, GSPT1 (Homo sapiens, UniProt P15170+Q96SW2); assay: Western-blot assay of substrate protein degradation in hPBMCs, GSPT1; type: cell-based; settings: 24 hours of compound treatment, 50 nM and 500 nM tested (concentration behind the class not stated)
T6 construct: endogenous in cells; host or cells: hPBMCs (Milecell Biotechnologies)

[1] = target: T7, human Cereblon WT GST-tagged protein (Homo sapiens, UniProt Q96SW2); assay: CRBN-binding affinity by HTRF (CEREBLON BINDING kit); settings: HTRF inhibitory activity, CEREBLON BINDING kit; read-out: HTRF IC50
T7 construct: purchased CISBIO 64BDCRBNPEH
T7 sequence (Q96SW2 whole entry): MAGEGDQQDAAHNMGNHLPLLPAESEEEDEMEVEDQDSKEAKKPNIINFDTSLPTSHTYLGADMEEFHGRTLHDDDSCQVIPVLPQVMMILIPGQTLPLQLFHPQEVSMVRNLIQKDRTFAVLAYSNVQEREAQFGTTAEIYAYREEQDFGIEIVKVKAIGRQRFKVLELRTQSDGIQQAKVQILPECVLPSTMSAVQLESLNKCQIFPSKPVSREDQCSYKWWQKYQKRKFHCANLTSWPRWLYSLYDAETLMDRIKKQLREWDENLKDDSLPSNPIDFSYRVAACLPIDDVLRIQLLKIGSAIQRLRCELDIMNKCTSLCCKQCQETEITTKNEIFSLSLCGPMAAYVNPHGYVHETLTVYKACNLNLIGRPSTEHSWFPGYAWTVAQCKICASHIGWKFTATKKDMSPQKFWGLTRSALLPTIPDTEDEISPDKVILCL

T4 sequence (Q9UKT9 whole entry): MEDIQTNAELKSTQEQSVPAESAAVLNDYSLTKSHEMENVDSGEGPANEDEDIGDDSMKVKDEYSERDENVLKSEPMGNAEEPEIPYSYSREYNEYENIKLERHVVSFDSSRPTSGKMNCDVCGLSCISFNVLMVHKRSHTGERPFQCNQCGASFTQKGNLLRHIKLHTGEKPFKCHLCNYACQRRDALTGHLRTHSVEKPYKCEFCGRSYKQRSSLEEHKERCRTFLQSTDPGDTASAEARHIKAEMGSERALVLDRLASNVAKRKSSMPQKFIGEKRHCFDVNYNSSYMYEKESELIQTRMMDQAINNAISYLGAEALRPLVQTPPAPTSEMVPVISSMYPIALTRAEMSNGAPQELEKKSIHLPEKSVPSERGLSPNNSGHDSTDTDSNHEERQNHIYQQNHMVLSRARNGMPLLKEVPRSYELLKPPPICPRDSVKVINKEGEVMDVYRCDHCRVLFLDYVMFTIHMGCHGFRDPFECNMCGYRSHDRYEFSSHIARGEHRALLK
T4 sequence (Q96SW2 whole entry): as the sequence (Q96SW2 whole entry) above
T4 sequence (Q16531 whole entry partner): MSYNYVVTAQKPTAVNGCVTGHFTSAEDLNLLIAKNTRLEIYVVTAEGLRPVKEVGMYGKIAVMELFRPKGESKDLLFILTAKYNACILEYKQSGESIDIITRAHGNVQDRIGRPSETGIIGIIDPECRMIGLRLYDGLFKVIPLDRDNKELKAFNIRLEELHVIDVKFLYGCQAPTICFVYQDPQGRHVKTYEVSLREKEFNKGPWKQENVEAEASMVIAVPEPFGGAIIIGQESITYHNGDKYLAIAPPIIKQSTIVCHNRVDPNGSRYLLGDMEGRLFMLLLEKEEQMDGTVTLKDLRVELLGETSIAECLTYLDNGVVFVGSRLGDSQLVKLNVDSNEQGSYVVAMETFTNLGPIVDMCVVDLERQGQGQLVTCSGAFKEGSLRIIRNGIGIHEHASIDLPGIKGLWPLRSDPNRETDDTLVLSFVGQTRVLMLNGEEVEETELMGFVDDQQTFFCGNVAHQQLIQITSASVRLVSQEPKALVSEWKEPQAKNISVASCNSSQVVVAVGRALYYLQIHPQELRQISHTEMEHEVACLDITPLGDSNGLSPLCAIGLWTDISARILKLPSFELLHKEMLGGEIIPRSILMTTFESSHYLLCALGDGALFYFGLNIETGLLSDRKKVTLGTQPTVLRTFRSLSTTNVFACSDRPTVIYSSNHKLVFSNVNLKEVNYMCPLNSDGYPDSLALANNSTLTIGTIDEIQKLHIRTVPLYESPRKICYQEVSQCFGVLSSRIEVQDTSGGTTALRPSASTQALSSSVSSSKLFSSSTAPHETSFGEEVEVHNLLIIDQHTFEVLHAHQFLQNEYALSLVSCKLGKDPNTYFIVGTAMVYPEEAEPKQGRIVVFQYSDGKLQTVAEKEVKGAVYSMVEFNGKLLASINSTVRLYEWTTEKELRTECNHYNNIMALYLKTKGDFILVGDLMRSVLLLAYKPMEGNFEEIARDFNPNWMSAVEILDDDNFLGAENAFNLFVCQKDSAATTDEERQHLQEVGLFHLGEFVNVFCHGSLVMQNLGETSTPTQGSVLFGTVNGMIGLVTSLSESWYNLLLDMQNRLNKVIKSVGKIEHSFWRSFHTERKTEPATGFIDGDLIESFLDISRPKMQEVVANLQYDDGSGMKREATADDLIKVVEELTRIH
T6 sequence (P15170 whole entry): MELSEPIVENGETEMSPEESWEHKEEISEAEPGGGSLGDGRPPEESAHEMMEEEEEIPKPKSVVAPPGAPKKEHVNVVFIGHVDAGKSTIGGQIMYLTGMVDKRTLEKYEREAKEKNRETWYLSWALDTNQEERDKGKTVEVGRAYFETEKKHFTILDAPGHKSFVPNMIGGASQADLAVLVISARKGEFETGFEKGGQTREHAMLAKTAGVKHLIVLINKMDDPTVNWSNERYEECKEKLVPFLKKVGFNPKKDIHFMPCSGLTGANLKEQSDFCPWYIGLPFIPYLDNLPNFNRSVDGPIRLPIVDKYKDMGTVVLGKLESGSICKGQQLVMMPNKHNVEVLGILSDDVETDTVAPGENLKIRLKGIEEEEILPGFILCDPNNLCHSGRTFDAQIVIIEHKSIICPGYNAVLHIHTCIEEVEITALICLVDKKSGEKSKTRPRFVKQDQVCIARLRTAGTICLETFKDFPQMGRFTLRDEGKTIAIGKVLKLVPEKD
T6 sequence (Q96SW2 whole entry): as the sequence (Q96SW2 whole entry) above
T6 sequence (Q16531 whole entry partner): as the sequence (Q16531 whole entry partner) above
T2 sequence (Q13422 whole entry): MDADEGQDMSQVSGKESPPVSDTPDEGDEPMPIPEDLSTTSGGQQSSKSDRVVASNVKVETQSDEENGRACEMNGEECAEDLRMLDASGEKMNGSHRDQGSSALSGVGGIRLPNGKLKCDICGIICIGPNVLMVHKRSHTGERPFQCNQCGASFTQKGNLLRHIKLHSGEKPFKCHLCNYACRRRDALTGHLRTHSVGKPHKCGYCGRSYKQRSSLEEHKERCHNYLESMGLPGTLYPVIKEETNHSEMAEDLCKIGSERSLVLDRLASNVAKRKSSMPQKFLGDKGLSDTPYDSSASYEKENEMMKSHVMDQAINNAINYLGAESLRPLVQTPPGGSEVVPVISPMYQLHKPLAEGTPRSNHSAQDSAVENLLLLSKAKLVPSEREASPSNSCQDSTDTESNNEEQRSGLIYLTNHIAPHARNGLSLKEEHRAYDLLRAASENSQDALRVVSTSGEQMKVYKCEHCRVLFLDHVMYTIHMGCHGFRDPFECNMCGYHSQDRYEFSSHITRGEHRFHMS
T2 sequence (Q96SW2 whole entry): as the sequence (Q96SW2 whole entry) above
T2 sequence (Q16531 whole entry partner): as the sequence (Q16531 whole entry partner) above
T5 sequence (P48729 whole entry): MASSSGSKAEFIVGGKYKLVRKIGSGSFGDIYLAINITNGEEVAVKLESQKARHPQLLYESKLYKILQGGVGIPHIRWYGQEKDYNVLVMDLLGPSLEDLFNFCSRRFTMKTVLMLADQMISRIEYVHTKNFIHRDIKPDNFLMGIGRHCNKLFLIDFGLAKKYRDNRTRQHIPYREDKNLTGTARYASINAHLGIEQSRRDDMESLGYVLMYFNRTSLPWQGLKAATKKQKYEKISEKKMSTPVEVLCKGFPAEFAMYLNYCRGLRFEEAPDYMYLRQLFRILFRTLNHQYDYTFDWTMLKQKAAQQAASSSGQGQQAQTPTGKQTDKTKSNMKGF
T5 sequence (Q96SW2 whole entry): as the sequence (Q96SW2 whole entry) above
T5 sequence (Q16531 whole entry partner): as the sequence (Q16531 whole entry partner) above
T3 sequence (Q9UKS7 whole entry): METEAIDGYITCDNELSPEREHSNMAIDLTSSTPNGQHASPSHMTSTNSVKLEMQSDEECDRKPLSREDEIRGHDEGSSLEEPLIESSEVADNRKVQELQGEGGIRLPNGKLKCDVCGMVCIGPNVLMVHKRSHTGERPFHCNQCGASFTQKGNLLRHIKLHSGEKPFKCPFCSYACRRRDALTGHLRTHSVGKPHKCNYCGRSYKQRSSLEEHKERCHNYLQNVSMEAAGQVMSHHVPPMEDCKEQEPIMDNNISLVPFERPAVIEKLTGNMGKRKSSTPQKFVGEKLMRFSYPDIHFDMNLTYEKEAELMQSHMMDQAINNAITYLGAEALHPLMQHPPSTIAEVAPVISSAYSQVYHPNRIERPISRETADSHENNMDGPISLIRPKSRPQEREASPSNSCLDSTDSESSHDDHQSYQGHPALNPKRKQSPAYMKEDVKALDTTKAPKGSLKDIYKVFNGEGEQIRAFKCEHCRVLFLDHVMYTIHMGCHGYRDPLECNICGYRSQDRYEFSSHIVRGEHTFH
T3 sequence (Q96SW2 whole entry): as the sequence (Q96SW2 whole entry) above
T3 sequence (Q16531 whole entry partner): as the sequence (Q16531 whole entry partner) above

| SMILES | IC50 [1] [nM] | Weel substrate protein remaining % (WEE1) | IKZF 1 substrate protein remaining % (IKZF1) | IKZF2 substrate protein remaining % (IKZF2) | IKZF3 substrate protein remaining % (IKZF3) | CK1a substrate protein remaining % (CK1α) | GSPT1 substrate protein remaining % (GSPT1) |
| --- | --- | --- | --- | --- | --- | --- | --- |
| CC(C)c1cc2c(N3CCN(Cc4ccc5c(c4)C(=O)N(C4CCC(=O)NC4=O)C5=O)CC3)ncnc2s1 (stereo not drawn) [GT-06306, 2-(2,6-dioxopiperidin-3-yl)-5-((4-(6-isopropylthieno[2,3-d]pyrimidin-4-yl)piperazin-1-yl)methyl)isoindoline-1,3-dione] | 1500 to 1900 | B (80%< substrate protein remaining %≤ 100%) | A (0% ≤ substrate protein remaining % ≤ 80%) | A (0% ≤ substrate protein remaining % ≤ 80%) | A (0% ≤ substrate protein remaining % ≤ 80%) | A (0% ≤ substrate protein remaining % ≤ 80%) | A (0% ≤ substrate protein remaining % ≤ 80%) |
| O=C1CCC(N2C(=O)c3ccc(CN4CCN(c5ncnc6sc(Br)cc56)CC4)cc3C2=O)C(=O)N1 (stereo not drawn) [GT-06309, 5-((4-(6-bromothieno[2,3-d]pyrimidin-4-yl)piperazin-1-yl)methyl)-2-(2,6-dioxopiperidin-3-yl)isoindoline-1,3-dione] | 1500 to 1900 | B (80%< substrate protein remaining %≤ 100%) | A (0% ≤ substrate protein remaining % ≤ 80%) | A (0% ≤ substrate protein remaining % ≤ 80%) | A (0% ≤ substrate protein remaining % ≤ 80%) | B (80%< substrate protein remaining %≤ 100%) | B (80%< substrate protein remaining %≤ 100%) |
| O=C1CCC(N2C(=O)c3ccc(CN4CCN(c5ncnc6sc7c(c56)CCCC7)CC4)cc3C2=O)C(=O)N1 (stereo not drawn) [GT-06564, 2-(2,6-dioxopiperidin-3-yl)-5-((4-(5,6,7,8-tetrahydrobenzo[4,5]thieno[2,3-d]pyrimidin-4-yl)piperazin-1-yl)methyl)isoindoline-1,3-dione] | 500 to 1000 | A (0% ≤ substrate protein remaining % ≤ 80%) | A (0% ≤ substrate protein remaining % ≤ 80%) | A (0% ≤ substrate protein remaining % ≤ 80%) | A (0% ≤ substrate protein remaining % ≤ 80%) | A (0% ≤ substrate protein remaining % ≤ 80%) | A (0% ≤ substrate protein remaining % ≤ 80%) |
| O=C1CCC(N2C(=O)c3ccc(CN4CCN(c5ncnc6sc7c(c56)CCC7)CC4)cc3C2=O)C(=O)N1 (stereo not drawn) [GT-06565, 5-((4-(6,7-dihydro-5H-cyclopenta[4,5]thieno[2,3-d]pyrimidin-4-yl)piperazin-1-yl)methyl)-2-(2,6-dioxopiperidin-3-yl)isoindoline-1,3-dione] | 1000 to 1500 | A (0% ≤ substrate protein remaining % ≤ 80%) | A (0% ≤ substrate protein remaining % ≤ 80%) | A (0% ≤ substrate protein remaining % ≤ 80%) | A (0% ≤ substrate protein remaining % ≤ 80%) | A (0% ≤ substrate protein remaining % ≤ 80%) | A (0% ≤ substrate protein remaining % ≤ 80%) |
| Cc1nc(N2CCN(Cc3ccc4c(c3)C(=O)N(C3CCC(=O)NC3=O)C4=O)CC2)c2c3c(sc2n1)CCC3 (stereo not drawn) [GT-06566, 2-(2,6-dioxopiperidin-3-yl)-5-((4-(2-methyl-6,7-dihydro-5H-cyclopenta[4,5]thieno[2,3-d]pyrimidin-4-yl)piperazin-1-yl)methyl)isoindoline-1,3-dione] | 500 to 1000 | A (0% ≤ substrate protein remaining % ≤ 80%) | A (0% ≤ substrate protein remaining % ≤ 80%) | A (0% ≤ substrate protein remaining % ≤ 80%) | A (0% ≤ substrate protein remaining % ≤ 80%) | A (0% ≤ substrate protein remaining % ≤ 80%) | A (0% ≤ substrate protein remaining % ≤ 80%) |
| O=C1CCC(N2C(=O)c3ccc(CN4CCN(c5ncc6ccsc6n5)CC4)cc3C2=O)C(=O)N1 (stereo not drawn) [GT-06567, 2-(2,6-dioxopiperidin-3-yl)-5-((4-(thieno[2,3-d]pyrimidin-2-yl)piperazin-1-yl)methyl)isoindoline-1,3-dione] | 1000 to 1500 | A (0% ≤ substrate protein remaining % ≤ 80%) | B (80%< substrate protein remaining %≤ 100%) | B (80%< substrate protein remaining %≤ 100%) | B (80%< substrate protein remaining %≤ 100%) | A (0% ≤ substrate protein remaining % ≤ 80%) | A (0% ≤ substrate protein remaining % ≤ 80%) |
| Cc1sc2ncnc(C3CCN(Cc4ccc5c(c4)C(=O)N(C4CCC(=O)NC4=O)C5=O)CC3)c2c1C (stereo not drawn) [GT-06593, 5-((4-(5,6-dimethylthieno[2,3-d]pyrimidin-4-yl)piperidin-1-yl)methyl)-2-(2,6-dioxopiperidin-3-yl)isoindoline-1,3-dione] | 1500 to 1900 | A (0% ≤ substrate protein remaining % ≤ 80%) | A (0% ≤ substrate protein remaining % ≤ 80%) | A (0% ≤ substrate protein remaining % ≤ 80%) | A (0% ≤ substrate protein remaining % ≤ 80%) | B (80%< substrate protein remaining %≤ 100%) | A (0% ≤ substrate protein remaining % ≤ 80%) |
| O=C1CCC(N2C(=O)c3ccc(CN4CC=C(c5c[nH]c6cc(F)ccc56)CC4)cc3C2=O)C(=O)N1 (stereo not drawn) [GT-06634, 2-(2,6-dioxopiperidin-3-yl)-5-((4-(6-fluoro-1H-indol-3-yl)-3,6-dihydropyridin-1(2H)-yl)methyl)isoindoline-1,3-dione] | 500 to 1000 | A (0% ≤ substrate protein remaining % ≤ 80%) | B (80%< substrate protein remaining %≤ 100%) | A (0% ≤ substrate protein remaining % ≤ 80%) | A (0% ≤ substrate protein remaining % ≤ 80%) | A (0% ≤ substrate protein remaining % ≤ 80%) | A (0% ≤ substrate protein remaining % ≤ 80%) |

Further lines, with some results ahead:

| IC50 [1] [nM] | SMILES | Weel substrate protein remaining % (WEE1) | IKZF 1 substrate protein remaining % (IKZF1) | IKZF2 substrate protein remaining % (IKZF2) | IKZF3 substrate protein remaining % (IKZF3) | CK1a substrate protein remaining % (CK1α) | GSPT1 substrate protein remaining % (GSPT1) |
| --- | --- | --- | --- | --- | --- | --- | --- |
| 500 to 1000 | Cc1csc2ncnc(N3CCN(Cc4ccc5c(c4)C(=O)N(C4CCC(=O)NC4=O)C5=O)CC3)c12 (stereo not drawn) [GT-06304, 2-(2,6-dioxopiperidin-3-yl)-5-((4-(5-methylthieno[2,3-d]pyrimidin-4-yl)piperazin-1-yl)methyl)isoindoline-1,3-dione] | B (80%< substrate protein remaining %≤ 100%) | A (0% ≤ substrate protein remaining % ≤ 80%) | A (0% ≤ substrate protein remaining % ≤ 80%) | B (80%< substrate protein remaining %≤ 100%) | B (80%< substrate protein remaining %≤ 100%) | B (80%< substrate protein remaining %≤ 100%) |
| 1000 to 1500 | Cc1nc(N2CCN(Cc3ccc4c(c3)C(=O)N(C3CCC(=O)NC3=O)C4=O)CC2)c2c3c(sc2n1)CCCC3 (stereo not drawn) [GT-06348, 2-(2,6-dioxopiperidin-3-yl)-5-((4-(2-methyl-5,6,7,8-tetrahydrobenzo[4,5]thieno[2,3-d]pyrimidin-4-yl)piperazin-1-yl)methyl)isoindoline-1,3-dione] | A (0% ≤ substrate protein remaining % ≤ 80%) | A (0% ≤ substrate protein remaining % ≤ 80%) | A (0% ≤ substrate protein remaining % ≤ 80%) | A (0% ≤ substrate protein remaining % ≤ 80%) | A (0% ≤ substrate protein remaining % ≤ 80%) | A (0% ≤ substrate protein remaining % ≤ 80%) |
| 500 to 1000 | Cc1nc(C2CCN(Cc3ccc4c(c3)C(=O)N(C3CCC(=O)NC3=O)C4=O)CC2)c2c(-c3ccccc3)csc2n1 (stereo not drawn) [GT-06646, 2-(2,6-dioxopiperidin-3-yl)-5-((4-(2-methyl-5-phenylthieno[2,3-d]pyrimidin-4-yl)piperidin-1-yl)methyl)isoindoline-1,3-dione] | B (80%< substrate protein remaining %≤ 100%) | B (80%< substrate protein remaining %≤ 100%) | B (80%< substrate protein remaining %≤ 100%) | B (80%< substrate protein remaining %≤ 100%) | B (80%< substrate protein remaining %≤ 100%) | A (0% ≤ substrate protein remaining % ≤ 80%) |
| 1500 to 1900 | O=C1CCC(N2C(=O)c3ccc(CN4CCC(c5ncnc6sc7c(c56)CCCC7)CC4)cc3C2=O)C(=O)N1 (stereo not drawn) [GT-06649, 2-(2,6-dioxopiperidin-3-yl)-5-((4-(5,6,7,8-tetrahydrobenzo[4,5]thieno[2,3-d]pyrimidin-4-yl)piperidin-1-yl)methyl)isoindoline-1,3-dione] | A (0% ≤ substrate protein remaining % ≤ 80%) | B (80%< substrate protein remaining %≤ 100%) | A (0% ≤ substrate protein remaining % ≤ 80%) | A (0% ≤ substrate protein remaining % ≤ 80%) | A (0% ≤ substrate protein remaining % ≤ 80%) | A (0% ≤ substrate protein remaining % ≤ 80%) |
